Reference: US20220323406A1, “METHODS AND COMPOSITIONS FOR DIFFERENTIATING STEM CELLS” (Massachusetts Institute of Technology, priority 2019, published 2022)
Counter-ions that a name gives are not always drawn.

Legend:
[1] = test system: ENR+CD organoids (ISC to Paneth cell differentiation); experiment: Primary screen: basal (non-stimulated) lysozyme secretion LYZ.NS, 2.5-D 384-well ENR+CD organoid differentiation; type: cell-based, mouse
Description: (§1) High-throughput screening.

ENR+CD organoids = experiment: Primary screen: ATP (CellTiter-Glo 3D, CTG) cell number/viability, 2.5-D 384-well ENR+CD organoids;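 note: compounds given at plating and again on day 3 over a 6-day differentiation from ENR+CV stem-cell-enriched precursors, ATP measured on day 6, plate median as control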
[2] = test system: ENR+CD organoids (ISC to Paneth cell differentiation); experiment: Primary screen: CCh-stimulated lysozyme secretion LYZ.S, 2.5-D 384-well ENR+CD organoid differentiation; type: cell-based, mouse; details: primary screen
Description: as §1

[3] = primary screen, dose 0.08 uM, standard z score
[4] = primary screen, dose 0.40 uM, standard z score
[5] = primary screen, dose 2.00 uM, standard z score
[6] = primary screen, dose 10.00 uM, standard z score
[7] = primary screen; dose 0.08 uM; FC vs plate median
[8] = primary screen; dose 0.40 uM; FC vs plate median
[9] = primary screen; dose 2.00 uM; FC vs plate median
[10] = primary screen; dose 10.00 uM; FC vs plate median
[11] = primary screen, dose 0.08 uM, FC relative to plate median
[12] = primary screen, dose 0.40 uM, FC relative to plate median
[13] = primary screen, dose 2.00 uM, FC relative to plate median
[14] = primary screen, dose 10.00 uM, FC relative to plate median
[15] = primary screen, standard z score, dose 0.08 uM
[16] = primary screen, standard z score, dose 0.40 uM
[17] = primary screen, standard z score, dose 2.00 uM
[18] = primary screen, standard z score, dose 10.00 uM

Question: How did the “Dose.FC.LYZ.NS (log2 fold change)” value ([1]; primary screen, dose 0.08 uM) turn out when `CC(C)(C)c1cc(C(C)(C)C)c(NC(=O)c2c[nH]c3ccccc3c2=O)cc1O` [Ivacaftor (VX-770)] was run?
Answer: 0.099

Question: What about the “Z.LYZ.NS (standard z score)” value ([1]; primary screen, dose 0.08 uM) of the same molecule?
Answer: 0.864

Question: And the “Dose.FC.LYZ.NS (log2 fold change)” value ([1]; primary screen, dose 0.40 uM)?
Answer: 0.127

Question: What about the “Z.LYZ.NS (standard z score)” value ([1]; primary screen, dose 0.40 uM) of the same molecule?
Answer: 1.109

Question: And the “Dose.FC.LYZ.NS (log2 fold change)” value ([1]; primary screen, dose 2.00 uM)?
Answer: 0.082

Question: What about the “Z.LYZ.NS (standard z score)” value ([1]; primary screen, dose 2.00 uM) of the same molecule?
Answer: 0.717

Question: And the “Dose.FC.LYZ.NS (log2 fold change)” value ([1]; primary screen, dose 10.00 uM)?
Answer: −0.142

Question: What about the “Z.LYZ.NS (standard z score)” value ([1]; primary screen, dose 10.00 uM) of the same molecule?
Answer: −1.240

Question: And the “Dose.FC.CTG (log2 fold change)” value (ENR+CD organoids; primary screen, dose 0.08 uM)?
Answer: 0.234

Question: And the “Z.CTG (standard z score)” value (ENR+CD organoids; primary screen, dose 0.08 uM)?
Answer: 0.558

Question: What about the “Dose.FC.CTG (log2 fold change)” value (ENR+CD organoids; primary screen, dose 0.40 uM) of the same molecule?
Answer: 0.145

Question: And the “Z.CTG (standard z score)” value (ENR+CD organoids; primary screen, dose 0.40 uM)?
Answer: 0.347

Question: What about the “Dose.FC.CTG (log2 fold change)” value (ENR+CD organoids; primary screen, dose 2.00 uM) of the same molecule?
Answer: −0.148

Question: And the “Z.CTG (standard z score)” value (ENR+CD organoids; primary screen, dose 2.00 uM)?
Answer: −0.354

Question: What about the “Dose.FC.CTG (log2 fold change)” value (ENR+CD organoids; primary screen, dose 10.00 uM) of the same molecule?
Answer: −0.470

Question: And the “Z.CTG (standard z score)” value (ENR+CD organoids; primary screen, dose 10.00 uM)?
Answer: −1.123

Question: What about the “Dose.FC.LYZ.S (log2 fold change)” value ([2]; dose 0.08 uM) of the same molecule?
Answer: 0.132

Question: What about the “Dose.FC.LYZ.S (log2 fold change)” value ([2]; dose 0.40 uM) of the same molecule?
Answer: 0.189

Question: What about the “Dose.FC.LYZ.S (log2 fold change)” value ([2]; dose 2.00 uM) of the same molecule?
Answer: 0.019

Question: And the “Dose.FC.LYZ.S (log2 fold change)” value ([2]; dose 10.00 uM)?
Answer: −0.253

Question: `Cc1cnc(-c2cc(N3CCN(C(=O)CCS(C)(=O)=O)CC3)ncc2Cl)c(C)c1` [PF-5274857] was tested. Which Z.LYZ.NS [1, 3] did it give?
Answer: 0.683

Question: What about the Z.LYZ.NS [1, 4] of the same molecule?
Answer: −0.256

Question: And the Z.LYZ.NS [1, 5]?
Answer: 0.094

Question: What about the Z.LYZ.NS [1, 6] of the same molecule?
Answer: 0.642

Question: And the Dose.FC.LYZ.NS [1, 7]?
Answer: 0.078 log2 fold change

Question: What about the Dose.FC.LYZ.NS [1, 8] of the same molecule?
Answer: −0.029 log2 fold change

Question: And the Dose.FC.LYZ.NS [1, 9]?
Answer: 0.011 log2 fold change

Question: What about the Dose.FC.LYZ.NS [1, 10] of the same molecule?
Answer: 0.074 log2 fold change

Question: What about the Z.CTG (ENR+CD organoids; [3]) of the same molecule?
Answer: −0.242

Question: What about the Z.CTG (ENR+CD organoids; [4]) of the same molecule?
Answer: −0.096

Question: And the Z.CTG (ENR+CD organoids; [5])?
Answer: 0.131

Question: What about the Z.CTG (ENR+CD organoids; [6]) of the same molecule?
Answer: −0.183

Question: What about the Dose.FC.CTG (ENR+CD organoids; [7]) of the same molecule?
Answer: −0.101 log2 fold change

Question: What about the Dose.FC.CTG (ENR+CD organoids; [8]) of the same molecule?
Answer: −0.040 log2 fold change

Question: And the Dose.FC.CTG (ENR+CD organoids; [9])?
Answer: 0.055 log2 fold change

Question: What about the Dose.FC.CTG (ENR+CD organoids; [10]) of the same molecule?
Answer: −0.076 log2 fold change

Question: What about the Dose.FC.LYZ.S ([2]; dose 0.08 uM, FC vs plate median) of the same molecule?
Answer: 0.187 log2 fold change

Question: And the Dose.FC.LYZ.S ([2]; dose 0.40 uM, FC vs plate median)?
Answer: −0.034 log2 fold change

Question: What about the Dose.FC.LYZ.S ([2]; dose 2.00 uM, FC vs plate median) of the same molecule?
Answer: 0.042 log2 fold change

Question: And the Dose.FC.LYZ.S ([2]; dose 10.00 uM, FC vs plate median)?
Answer: 0.076 log2 fold change

Question: With `CN(C)CCOc1ccc(/C(=C(/CCCl)c2ccccc2)c2ccccc2)cc1` [Toremifene Citrate] as the molecule, how does the Dose.FC.LYZ.NS ([1]; primary screen, dose 0.08 uM) read?
Answer: 0.051 log2 fold change

Question: And the “Z.LYZ.NS (standard z score)” value ([1]; primary screen, dose 0.08 uM)?
Answer: 0.446

Question: What about the Dose.FC.LYZ.NS ([1]; primary screen, dose 0.40 uM) of the same molecule?
Answer: 0.060 log2 fold change

Question: And the “Z.LYZ.NS (standard z score)” value ([1]; primary screen, dose 0.40 uM)?
Answer: 0.522

Question: And the Dose.FC.LYZ.NS ([1]; primary screen, dose 2.00 uM)?
Answer: 0.030 log2 fold change

Question: What about the “Z.LYZ.NS (standard z score)” value ([1]; primary screen, dose 2.00 uM) of the same molecule?
Answer: 0.258

Question: What about the Dose.FC.LYZ.NS ([1]; primary screen, dose 10.00 uM) of the same molecule?
Answer: −0.198 log2 fold change

Question: What about the “Z.LYZ.NS (standard z score)” value ([1]; primary screen, dose 10.00 uM) of the same molecule?
Answer: −1.721

Question: What about the Dose.FC.CTG (ENR+CD organoids; primary screen, dose 0.08 uM) of the same molecule?
Answer: 0.344 log2 fold change

Question: What about the Dose.FC.CTG (ENR+CD organoids; primary screen, dose 0.40 uM) of the same molecule?
Answer: 0.119 log2 fold change

Question: And the Dose.FC.CTG (ENR+CD organoids; primary screen, dose 2.00 uM)?
Answer: −1.012 log2 fold change

Question: What about the Dose.FC.CTG (ENR+CD organoids; primary screen, dose 10.00 uM) of the same molecule?
Answer: −1.396 log2 fold change

Question: And the Dose.FC.LYZ.S ([2]; dose 0.08 uM)?
Answer: 0.078 log2 fold change

Question: What about the Dose.FC.LYZ.S ([2]; dose 0.40 uM) of the same molecule?
Answer: 0.229 log2 fold change

Question: And the Dose.FC.LYZ.S ([2]; dose 2.00 uM)?
Answer: −0.034 log2 fold change

Question: What about the Dose.FC.LYZ.S ([2]; dose 10.00 uM) of the same molecule?
Answer: −0.283 log2 fold change

Question: How did the Dose.FC.LYZ.NS [1, 11] turn out when `Nc1ccc(C(=O)[O-])c(O)c1.[Na+]` [Sodium 4-Aminosalicylate] was run?
Answer: 0.080 log2 fold change

Question: And the Z.LYZ.NS [1, 3]?
Answer: 0.695

Question: And the Dose.FC.LYZ.NS [1, 12]?
Answer: 0.041 log2 fold change

Question: And the Z.LYZ.NS [1, 4]?
Answer: 0.354

Question: What about the Dose.FC.LYZ.NS [1, 13] of the same molecule?
Answer: 0.156 log2 fold change

Question: What about the Z.LYZ.NS [1, 5] of the same molecule?
Answer: 1.354

Question: And the Dose.FC.LYZ.NS [1, 14]?
Answer: 0.091 log2 fold change

Question: And the Z.LYZ.NS [1, 6]?
Answer: 0.796

Question: What about the Dose.FC.CTG (ENR+CD organoids; [11]) of the same molecule?
Answer: 0.119 log2 fold change

Question: And the Dose.FC.CTG (ENR+CD organoids; [12])?
Answer: 0.204 log2 fold change

Question: What about the Dose.FC.CTG (ENR+CD organoids; [13]) of the same molecule?
Answer: 0.038 log2 fold change

Question: And the Dose.FC.CTG (ENR+CD organoids; [14])?
Answer: 0.247 log2 fold change

Question: And the Dose.FC.LYZ.S ([2]; dose 0.08 uM, FC relative to plate median)?
Answer: 0.162 log2 fold change

Question: What about the Dose.FC.LYZ.S ([2]; dose 0.40 uM, FC relative to plate median) of the same molecule?
Answer: 0.050 log2 fold change

Question: And the Dose.FC.LYZ.S ([2]; dose 2.00 uM, FC relative to plate median)?
Answer: 0.099 log2 fold change

Question: What about the Dose.FC.LYZ.S ([2]; dose 10.00 uM, FC relative to plate median) of the same molecule?
Answer: 0.143 log2 fold change

Question: For `Cn1cc(C2=C(c3cn(C4CCN(Cc5ccccn5)CC4)c4ccccc34)C(=O)NC2=O)c2ccccc21` [Enzastaurin (LY317615)], which Dose.FC.LYZ.NS ([1]; primary screen, dose 0.08 uM) is on record?
Answer: 0.085 log2 fold change

Question: And the Dose.FC.LYZ.NS ([1]; primary screen, dose 0.40 uM)?
Answer: 0.131 log2 fold change

Question: And the Dose.FC.LYZ.NS ([1]; primary screen, dose 2.00 uM)?
Answer: 0.053 log2 fold change

Question: What about the Dose.FC.LYZ.NS ([1]; primary screen, dose 10.00 uM) of the same molecule?
Answer: −0.116 log2 fold change

Question: What about the Z.LYZ.NS [1, 15] of the same molecule?
Answer: 0.744

Question: And the Z.LYZ.NS [1, 16]?
Answer: 1.143

Question: And the Z.LYZ.NS [1, 17]?
Answer: 0.458

Question: What about the Z.LYZ.NS [1, 18] of the same molecule?
Answer: −1.012

Question: What about the Dose.FC.CTG (ENR+CD organoids; primary screen, dose 0.08 uM) of the same molecule?
Answer: 0.236 log2 fold change

Question: And the Dose.FC.CTG (ENR+CD organoids; primary screen, dose 0.40 uM)?
Answer: 0.475 log2 fold change

Question: And the Dose.FC.CTG (ENR+CD organoids; primary screen, dose 2.00 uM)?
Answer: 0.251 log2 fold change

Question: And the Dose.FC.CTG (ENR+CD organoids; primary screen, dose 10.00 uM)?
Answer: −0.081 log2 fold change

Question: What about the Z.CTG (ENR+CD organoids; [15]) of the same molecule?
Answer: 0.565

Question: What about the Z.CTG (ENR+CD organoids; [16]) of the same molecule?
Answer: 1.135

Question: What about the Z.CTG (ENR+CD organoids; [17]) of the same molecule?
Answer: 0.600

Question: What about the Z.CTG (ENR+CD organoids; [18]) of the same molecule?
Answer: −0.194

Question: And the Dose.FC.LYZ.S ([2]; dose 0.08 uM)?
Answer: 0.109 log2 fold change

Question: What about the Dose.FC.LYZ.S ([2]; dose 0.40 uM) of the same molecule?
Answer: 0.251 log2 fold change

Question: And the Dose.FC.LYZ.S ([2]; dose 2.00 uM)?
Answer: 0.053 log2 fold change

Question: What about the Dose.FC.LYZ.S ([2]; dose 10.00 uM) of the same molecule?
Answer: −0.226 log2 fold change
